Source: ChEMBL document CHEMBL4385641 (Bioorg Med Chem, 2019)

Legend:
[1] = Permeability across apical to basolateral side in MDCK-MDR1 cells at 10 uM incubated for 1 hr by mass spectrometric method; format: ADME, cell-based, Canis lupus familiaris; conditions: dog, mdck-mdr1, 1 h
Cannabinoid receptor 2 = Cannabinoid receptor 2 (Homo sapiens, UniProt P34972); experiment: Displacement of [3H]-CP55940 from human CB2 receptor expressed in CHO cell membranes
Cannabinoid receptor 1 [2] = molecular target: T1, Cannabinoid receptor 1 (Homo sapiens, UniProt P21554); experiment: Inverse agonist activity at human CB1 receptor expressed in CHOK1 cells co-expressing Galphaq16 assessed as apparent equilibrium constant after 90 secs by […]-4 AM dye-based FLIPR assay; format: cell-based
T1 sequence (P21554 whole entry): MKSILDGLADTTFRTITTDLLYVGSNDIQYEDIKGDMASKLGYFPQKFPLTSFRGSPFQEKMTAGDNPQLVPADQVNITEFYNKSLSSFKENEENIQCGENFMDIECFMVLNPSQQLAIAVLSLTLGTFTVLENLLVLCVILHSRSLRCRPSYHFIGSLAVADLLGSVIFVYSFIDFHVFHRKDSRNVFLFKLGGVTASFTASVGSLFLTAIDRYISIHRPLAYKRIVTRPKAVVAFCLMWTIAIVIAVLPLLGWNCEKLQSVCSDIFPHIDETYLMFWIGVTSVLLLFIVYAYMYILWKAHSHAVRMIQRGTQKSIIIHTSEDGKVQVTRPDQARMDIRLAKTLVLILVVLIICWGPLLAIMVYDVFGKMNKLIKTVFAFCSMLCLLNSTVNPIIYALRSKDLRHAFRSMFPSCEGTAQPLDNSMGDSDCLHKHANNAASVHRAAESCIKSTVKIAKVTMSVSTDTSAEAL

Homo sapiens = species: Homo sapiens; experiment: Selectivity ratio of Ki for displacement of [3H]-CP55940 from human CB2 receptor expressed in CHO cell membranes to Ki for displacement of [3H]-CP55940 from human CB1 receptor expressed in CHO cell membranes
Cannabinoid receptor 1 [3] = molecular target: T1, Cannabinoid receptor 1; experiment: Displacement of [3H]-CP55940 from human CB1 receptor expressed in CHO cell membranes
Cannabinoid receptor 1 [4] = molecular target: T1, Cannabinoid receptor 1; experiment: Inverse agonist activity at human CB1 receptor expressed in CHOK1 cells co-expressing Galphaq16 assessed as inhibition of calcium mobilization after 90 secs by […]-4 AM dye-based FLIPR assay; format: functional, cell-based
[5] = Half life in human liver microsomes at 1 uM by mass mass spectrometric method; format: ADME, Microsome; conditions: for t1/2: microsomes, 1 µM
[6] = Intrinsic clearance in human liver microsomes at 1 uM incubated for up to 120 mins by mass mass spectrometric method; format: ADME, Microsome; conditions: for CLH: microsomes, 2 h, 1 µM
[7] = Ratio of Cmax in brain to plasma in C57BL6 mouse at […], po by LC-MS/MS analysis; format: ADME, organism-based
[8] = Half life in C57BL6 mouse plasma at […], po by LC-MS/MS analysis; format: ADME, organism-based
[9] = Cmax in C57BL6 mouse plasma at […], po by LC-MS/MS analysis; format: ADME, organism-based; parameters: dose 2.5 mg/kg, route oral
[10] = Lipophilicity, log D of compound; format: physicochemical; conditions: octanol/water
[11] = Cmax in C57BL6 mouse plasma at 0.3 mg/kg, po by LC-MS/MS analysis; format: ADME, organism-based; parameters: dose 0.3 mg/kg, route oral
[12] = Drug uptake in C57BL6 mouse brain at […], po by LC-MS/MS analysis; format: ADME, organism-based; conditions: in vivo

Cannabinoid receptor 2, sequence (P34972 whole entry): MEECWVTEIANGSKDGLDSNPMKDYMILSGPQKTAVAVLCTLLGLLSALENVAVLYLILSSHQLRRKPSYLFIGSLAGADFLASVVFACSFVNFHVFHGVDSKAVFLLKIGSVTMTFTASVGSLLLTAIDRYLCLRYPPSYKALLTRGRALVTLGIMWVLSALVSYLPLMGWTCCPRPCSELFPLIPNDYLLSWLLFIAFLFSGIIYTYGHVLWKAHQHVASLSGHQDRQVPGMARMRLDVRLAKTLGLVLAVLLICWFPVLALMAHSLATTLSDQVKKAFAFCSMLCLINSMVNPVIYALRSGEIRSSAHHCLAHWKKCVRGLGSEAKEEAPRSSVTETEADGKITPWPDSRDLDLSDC

Structure (SMILES) | permeability [1] [%] | Ki (Cannabinoid receptor 2) [nM] | Ke(app) (Cannabinoid receptor 1 [2]) [nM] | Ki (Cannabinoid receptor 1 [3]) [nM] | Ratio Ki (Homo sapiens) | other results
Cc1cc(-n2c(-c3ccccc3Cl)nc3c(N4CCC(NS(=O)(=O)c5ccc(F)c(F)c5)CC4)ncnc32)no1 |  | > 10000 | 56 | 420 | > 20 | 
COCCOC(=O)NC1CCN(c2ncnc3c2nc(-c2ccccc2Cl)n3-c2ccc(Cl)cc2)CC1 | 13 | > 5000 | 6 | 17 | > 200 | 
CCCCC(=O)NC1CCN(c2ncnc3c2nc(-c2ccccc2Cl)n3-c2ccc(C(F)(F)F)nc2)CC1 | 28 | 420 | 4 | 3 | 140 | 
O=S(=O)(NC1CCN(c2ncnc3c2nc(-c2ccccc2Cl)n3-c2ccc(Cl)cc2)CC1)c1ccccc1F |  | 8500 | 0.8 | 0.38 | 22000 | EC50 (Cannabinoid receptor 1 [4]): 287 nM
O=S(=O)(NC1CCN(c2ncnc3c2nc(-c2ccccc2Cl)n3-c2ccc(OC(F)F)nc2)CC1)c1ccccc1F |  | 190 | 0.7 | 1.6 | 120 | 
O=C(NC1CCN(c2ncnc3c2nc(-c2ccccc2Cl)n3-c2ccc(Cl)cc2)CC1)c1ccc(F)c(F)c1 | 0.2 | 5900 | 0.7 | 3 | 2000 | 
O/N=C(\c1ccc(F)cc1)C1CCN(c2ncnc3c2nc(-c2ccccc2Cl)n3-c2ccc(Cl)cc2)CC1 (stereo in doubt; 20) |  | > 10000 |  | 5 |  | half-life at 1 µM ([5]; liver microsomes): 1.1 h; microsomal CLint at 1 µM ([6]; liver microsomes, read-out: CLH): 19 µL/min/mg
CCCCCS(=O)(=O)NC1CCN(c2ncnc3c2nc(-c2ccccc2Cl)n3-c2ccc(Cl)cc2)CC1 | < 0.1 | 570 | 29 | 9 | 63 | 
O=S(=O)(NC1CCN(c2ncnc3c2nc(-c2ccccc2Cl)n3-c2ccc(C(F)(F)F)nc2)CC1)c1ccccc1F |  | 400 | 0.5 | 4 | 100 | 
O/N=C(\c1ccc(F)cc1)C1CCN(c2ncnc3c2nc(-c2ccccc2Cl)n3-c2ccc(Cl)cc2)CC1 (stereo in doubt; 21) |  |  |  | 7 |  | Ki (Cannabinoid receptor 2; cho): > 10000 nM; t1/2 [5]: 1.68 h; CLH [6]: 12 µL/min/mg
O=C(NC1CCN(c2ncnc3c2nc(-c2ccccc2Cl)n3-c2ccc(Cl)cc2)CC1)c1ccc(F)cc1F | < 0.1 | > 7000 | 1.2 | 2 | > 3500 | 
O=S(=O)(NC1CCN(c2ncnc3c2nc(-c2ccccc2Cl)n3-c2ccc(Cl)cc2)CC1)c1ccc(F)cc1 | 0.1 | 9000 | 1.1 | 3.3 | > 2000 | 
CN(Cc1ccccc1)C1CCN(c2ncnc3c2nc(-c2ccccc2Cl)n3-c2ccc(Cl)cc2)CC1 |  | 2700 | 34 |  | 64 | 
O=S(=O)(NC1CCCCC1)NC1CCN(c2ncnc3c2nc(-c2ccccc2Cl)n3-c2ccc(Cl)cc2)CC1 |  | 330 | 8 | 5 | 66 | Cmax [11]: 4 ng/mL
N=C(NC1CCN(c2ncnc3c2nc(-c2ccccc2Cl)n3-c2ccc(Cl)cc2)CC1)c1ccc(F)cc1 | 0.2 |  | 170 | 780 | > 7 | logD [10]: 4.1; Drug uptake [12]: < 20%; Ratio [7]: 0.16; half-life [8]: 6 h; t1/2 [5]: 2.77 h; CLH [6]: 8 µL/min/mg; Cmax [9]: 50 ng/mL
Clc1ccc(-n2c(-c3ccccc3Cl)nc3c(N4CCC(Nc5ccccn5)CC4)ncnc32)cc1 | 0.1 | 3100 | 54 | 2.4 | 1300 | Ratio [7]: 0.45; half-life [8]: 7.4 h; Cmax [9]: 38 ng/mL

The next lines start with results.

permeability [1] [%] | Ki (Cannabinoid receptor 2) [nM] | Ke(app) (Cannabinoid receptor 1 [2]) [nM] | Ki (Cannabinoid receptor 1 [3]) [nM] | Structure (SMILES) | Ratio Ki (Homo sapiens) | other results
0.1 | > 10000 | 2 |  | O=S(=O)(NC1CCN(c2ncnc3c2nc(-c2ccccc2Cl)n3-c2ccc(Cl)cc2)CC1)c1ccc(F)cc1F | > 5000 | 
1 | 420 | 12 | 4 | O=S(=O)(CCC(F)(F)F)NC1CCN(c2ncnc3c2nc(-c2ccccc2Cl)n3-c2ccc(Cl)cc2)CC1 | 105 | 
 | > 10000 | 21 | 2.6 | O=S(=O)(NC1CCN(c2ncnc3c2nc(-c2ccccc2Cl)n3-c2ccc(F)cc2)CC1)c1ccccc1F | > 3000 | 
 | 1900 | 26 | 3 | O=C(NC1CCN(c2ncnc3c2nc(-c2ccccc2Cl)n3-c2ccc(Cl)cc2)CC1)C1CCSCC1 | 630 | 
< 0.1 | > 10000 | 31 | 9 | O=S(=O)(CC1CCCCC1)NC1CCN(c2ncnc3c2nc(-c2ccccc2Cl)n3-c2ccc(Cl)cc2)CC1 | > 1100 | 
20 | 4900 | 1.7 | 6 | CC(C)(C)OCCC(=O)NC1CCN(c2ncnc3c2nc(-c2ccccc2Cl)n3-c2ccc(Cl)cc2)CC1 | 820 | 
3 | 740 | 19 | 8 | O=C(NC1CCN(c2ncnc3c2nc(-c2ccccc2Cl)n3-c2ccc(C(F)(F)F)nc2)CC1)c1ccccc1 | 92 | 
 | 710 | 3 | 4 | O=C(NC1CCN(c2ncnc3c2nc(-c2ccccc2Cl)n3-c2ccc(Cl)cc2)CC1)OCc1ccccc1 | 180 | 
 | 15 | 0.3 | 0.2 | CC(C)(C)CC(=O)NC1CCN(c2ncnc3c2nc(-c2ccccc2Cl)n3-c2ccc(Cl)cc2)CC1 | 75 | 
< 0.1 | > 10000 | 0.5 | 1.7 | O=S(=O)(NC1CCN(c2ncnc3c2nc(-c2ccccc2Cl)n3-c2ccc(Cl)cc2)CC1)c1ccc(F)c(F)c1 | > 5000 | Ratio [7]: 0.31; half-life [8]: 5.3 h; Cmax [9]: 12 ng/mL
 |  | 300 |  | N=C(Nc1ccc(F)cc1)NC1CCN(c2ncnc3c2nc(-c2ccccc2Cl)n3-c2ccc(Cl)cc2)CC1 |  | logD [10]: 4.6
0.1 | 6000 | 0.6 | 0.98 | O=C(NC1CCN(c2ncnc3c2nc(-c2ccccc2Cl)n3-c2ccc(Cl)cc2)CC1)c1ccccc1F | 6000 | EC50 (Cannabinoid receptor 1 [4]): 94.8 nM
0.2 | 10000 | 1.1 | 2 | O=C(NC1CCN(c2ncnc3c2nc(-c2ccccc2Cl)n3-c2ccc(Cl)cc2)CC1)c1ccc(F)cc1 | 5000 | 
 | 830 | 12 |  | Clc1ccc(-n2c(-c3ccccc3Cl)nc3c(N4CCC(c5nc6ccccc6[nH]5)CC4)ncnc32)cc1 | 18 | 
< 0.1 | 150 | 2 | 3 | CC(C(=O)NC1CCN(c2ncnc3c2nc(-c2ccccc2Cl)n3-c2ccc(Cl)cc2)CC1)c1ccccc1 (stereo not given) | 50 | 
 | 1050 | 1 | 0.6 | O=C(NC1CCN(c2ncnc3c2nc(-c2ccccc2Cl)n3-c2ccc(Cl)cc2)CC1)OC1CCC1 | 1800 | 
0 | > 10000 | 1.4 | 6 | Clc1ccc(-n2c(-c3ccccc3Cl)nc3c(N4CCC(Nc5ccccc5)CC4)ncnc32)cc1 | > 1600 | 
 | 860 | 1.6 | 3 | O=S(=O)(NC1CCN(c2ncnc3c2nc(-c2ccccc2Cl)n3-c2ccc(OC(F)F)nc2)CC1)c1ccc(F)c(F)c1 | 290 | Drug uptake [12]: < 20%; Ratio [7]: 0.18; EC50 (Cannabinoid receptor 1 [4]): 132 nM; half-life [8]: 1.6 h; t1/2 [5]: 4.57 h; CLH [6]: 5 µL/min/mg; Cmax [9]: 62 ng/mL
 | > 6000 | 1 | 10 | O=S(=O)(NC1CCN(c2ncnc3c2nc(-c2ccccc2Cl)n3-c2ccc(C(F)(F)F)nc2)CC1)c1ccc(F)c(F)c1 | > 600 | 
